Reference: PubChem BioAssay (NCI)
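Dose response: 5 concentrations. Exposure: 48 h. Format: 96-well plates. Endpoint: linear interpolation; highest concentration if not reached. GI50 is the concentration that inhibits growth by half. At the TGI there is no net growth.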

What was measured:
Experiment in all cases: NCI tumour cell line growth inhibition, 48 h
[1] = tested on: A498 renal
[2] = tested on: SW-620 colon
[3] = tested on: K-562 leukemia
[4] = tested on: MDA-MB-231 breast
[5] = tested on: CAKI-1 renal
[6] = tested on: HCT-116 colon
[7] = tested on: SF-268 CNS
[8] = tested on: LOX IMVI melanoma
[9] = tested on: UACC-257 melanoma
[10] = tested on: MOLT-4 leukemia
[11] = tested on: OVCAR-3 ovarian
[12] = tested on: KM12 colon
[13] = tested on: HCT-15 colon
[14] = tested on: HCC-2998 colon
[15] = tested on: NCI-H226 lung
[16] = tested on: HOP-92 NSCLC
[17] = tested on: SK-MEL-28 melanoma
[18] = tested on: SF-295 CNS
[19] = tested on: NCI/ADR-RES ovarian
[20] = tested on: MDA-MB-435
[21] = tested on: IGROV1 ovarian
[22] = tested on: TK-10 renal
[23] = tested on: COLO 205 colon
[24] = tested on: OVCAR-5 ovarian
[25] = tested on: SN12C renal
[26] = tested on: SK-OV-3 ovarian
[27] = tested on: CCRF-CEM leukemia
[28] = tested on: NCI-H23 lung
[29] = tested on: MALME-3M melanoma
[30] = tested on: HL-60(TB) leukemia
[31] = tested on: UACC-62 melanoma
[32] = tested on: HOP-62 NSCLC
[33] = tested on: DU-145 prostate
[34] = tested on: BT-549 breast
[35] = tested on: OVCAR-4 ovarian
[36] = tested on: UO-31 renal
[37] = tested on: U251 CNS
[38] = tested on: RXF 393 renal
[39] = tested on: SK-MEL-2 melanoma
[40] = tested on: HS 578T breast
[41] = tested on: PC-3 prostate
[42] = tested on: SF-539 CNS
[43] = tested on: SNB-75 CNS
[44] = tested on: RPMI-8226 leukemia
[45] = tested on: NCI-H522 lung
[46] = tested on: A549 NSCLC
[47] = tested on: SNB-19 CNS
[48] = tested on: T-47D breast
[49] = tested on: SK-MEL-5 melanoma
[50] = tested on: NCI-H460 lung
[51] = tested on: EKVX NSCLC
[52] = tested on: M14 melanoma
[53] = tested on: MCF7 breast
[54] = tested on: HT29 colon
[55] = tested on: 786-0 renal
[56] = tested on: OVCAR-8 ovarian
[57] = tested on: ACHN renal
[58] = tested on: SR leukemia

SMILES: CN(C)CCNc1c2c(c(NCCN(C)C)c3c(CO)c[nH]c13)C(=O)c1ccccc1C2=O
- GI50 [1]: 18.1 µM
- TGI [1]: 34.7 µM
- GI50 [2]: 1870 nM
- TGI [2]: 7.57 µM
- GI50 [3]: 3.47 µM
- TGI [3]: > 100 µM
- GI50 [4]: 2290 nM
- TGI [4]: 10.7 µM
- GI50 [5]: 4.64 µM
- TGI [5]: 19.2 µM
- GI50 [6]: 721 nM
- TGI [6]: 10.9 µM
- GI50 [7]: 4.27 µM
- TGI [7]: 22.1 µM
- GI50 [8]: 1970 nM
- TGI [8]: 10 µM
- GI50 [9]: 9.85 µM
- TGI [9]: > 76.2 µM
- GI50 [10]: 371 nM
- GI50 [11]: 3.91 µM
- TGI [11]: 25.1 µM
- GI50 [12]: 1030 nM
- TGI [12]: 5.73 µM
- GI50 [13]: 1960 nM
- TGI [13]: 10.6 µM
- GI50 [14]: 1430 nM
- TGI [14]: 5.46 µM
- GI50 [15]: 7.37 µM
- TGI [15]: 26.3 µM
- GI50 [16]: 2890 nM
- TGI [16]: 13.1 µM
- GI50 [17]: 5.01 µM
- TGI [17]: 10.6 µM
- GI50 [18]: 3.39 µM
- TGI [18]: 17.8 µM
- GI50 [19]: 4.06 µM
- TGI [19]: 22.7 µM
- GI50 [20]: 4.56 µM
- TGI [20]: 20.6 µM
- GI50 [21]: 2490 nM
- TGI [21]: > 40.7 µM
- GI50 [22]: 2530 nM
- TGI [22]: 7.55 µM
- GI50 [23]: 2740 nM
- TGI [23]: > 37.5 µM
- GI50 [24]: 12.7 µM
- TGI [24]: 33.5 µM
- GI50 [25]: 1250 nM
- TGI [25]: 8.33 µM
- GI50 [26]: 4.64 µM
- TGI [26]: 20.8 µM
- GI50 [27]: 3.07 µM
- TGI [27]: > 32.1 µM
- GI50 [28]: 2310 nM
- TGI [28]: > 21.9 µM
- GI50 [29]: 2400 nM
- TGI [29]: 6.83 µM
- GI50 [30]: 29.9 µM
- TGI [30]: > 100 µM
- GI50 [31]: 7.64 µM
- TGI [31]: 21.7 µM
- GI50 [32]: 1020 nM
- TGI [32]: 7.29 µM
- GI50 [33]: 2170 nM
- TGI [33]: 12.7 µM
- GI50 [34]: 8.23 µM
- TGI [34]: 23.5 µM
- GI50 [35]: 2580 nM
- TGI [35]: 11.5 µM
- GI50 [36]: 3.31 µM
- TGI [36]: 23.2 µM
- GI50 [37]: 3.07 µM
- TGI [37]: 22.5 µM
- GI50 [38]: 3.83 µM
- TGI [38]: 12.5 µM
- GI50 [39]: 11.2 µM
- TGI [39]: 23.2 µM
- GI50 [40]: 3.36 µM
- TGI [40]: 13.6 µM
- GI50 [41]: 2600 nM
- TGI [41]: 26.8 µM
- GI50 [42]: 1960 nM
- TGI [42]: 4.72 µM
- GI50 [43]: 6.38 µM
- TGI [43]: 22.6 µM
- GI50 [44]: 2170 nM
- TGI [44]: 12.8 µM
- GI50 [45]: 4.6 µM
- TGI [45]: 24.1 µM
- GI50 [46]: 3.41 µM
- TGI [46]: > 37.6 µM
- GI50 [47]: 6.09 µM
- TGI [47]: 22.3 µM
- GI50 [48]: 22.1 µM
- TGI [48]: 48.2 µM
- GI50 [49]: 1810 nM
- TGI [49]: 4.67 µM
- GI50 [50]: 1920 nM
- TGI [50]: 9.12 µM
- GI50 [51]: 3.05 µM
- TGI [51]: 9.34 µM
- GI50 [52]: 2040 nM
- TGI [52]: 4.57 µM
- GI50 [53]: 1970 nM
- TGI [53]: > 34.1 µM
- GI50 [54]: 1400 nM
- TGI [54]: > 23.2 µM
- GI50 [55]: 3.38 µM
- TGI [55]: 16.2 µM
- GI50 [56]: 8.53 µM
- TGI [56]: > 39.4 µM
- GI50 [57]: 1920 nM
- TGI [57]: 9.96 µM

SMILES: c1ccc(-c2cnc3nc4ccccc4nc3n2)cc1
- TGI [1]: 27.1 µM
- TGI [2]: 18 µM
- TGI [3]: > 100 µM
- TGI [4]: 17.4 µM
- TGI [5]: 3.53 µM
- TGI [6]: 21.9 µM
- TGI [7]: 17.8 µM
- TGI [8]: 20.1 µM
- TGI [9]: 8.62 µM
- TGI [10]: 43.1 µM
- TGI [11]: 5.63 µM
- TGI [12]: 21.8 µM
- TGI [13]: > 100 µM
- TGI [14]: 43.3 µM
- TGI [15]: 19.7 µM
- TGI [17]: 32.8 µM
- TGI [18]: 25.3 µM
- TGI [19]: 39 µM
- TGI [20]: 3.22 µM
- TGI [21]: 17.5 µM
- TGI [22]: 20.8 µM
- TGI [23]: 17.6 µM
- TGI [58]: 4.81 µM
- TGI [24]: 83.1 µM
- TGI [25]: 31.5 µM
- TGI [26]: 9.12 µM
- TGI [27]: 10.2 µM
- TGI [28]: 22 µM
- TGI [29]: 15.8 µM
- TGI [30]: > 100 µM
- TGI [31]: 15.4 µM
- TGI [32]: 65.3 µM
- TGI [33]: 19.6 µM
- TGI [34]: 29 µM
- TGI [35]: 19.5 µM
- TGI [36]: 19.5 µM
- TGI [37]: 22.4 µM
- TGI [39]: 15.1 µM
- TGI [40]: 33.3 µM
- TGI [42]: 15.8 µM
- TGI [43]: 22.8 µM
- TGI [44]: 23.9 µM
- TGI [45]: 19 µM
- TGI [46]: 23.6 µM
- TGI [47]: 32.7 µM
- TGI [48]: 47 µM
- TGI [49]: 12.3 µM
- TGI [50]: 13.3 µM
- TGI [51]: 16.5 µM
- TGI [52]: 25.6 µM
- TGI [53]: 4.71 µM
- TGI [54]: 35.5 µM
- TGI [55]: > 100 µM
- TGI [56]: 6.8 µM
- TGI [57]: 15.4 µM
